“And” between values parts separate entries of the source, which are not always exact repeats. Equal values may be shown once.
Tested on: rat primary hepatocytes
Assay: Metabolic disposition of [^14C]-Compound 1 and [^14C]-2′-C-methyl guanosine in rat primary hepatocytes (incubation medium, cellular extracts, nucleotide levels)
Type: in vitro ADME, Sprague Dawley rat
Conditions: for AUC (area under the concentration-time curve) of Compound 7 levels: 0-24 h
Description: Primary hepatocytes: Freshly isolated cells from animal and human liver were obtained in suspension on ice. Cells were pelleted by centrifugation at 70-75×g (rat) or 95-90×g (monkey and human) and resuspended at 0.8 million cells per mL of platting medium (William's E supplemented with 5% FBS, 0.5% penicillin-streptomycin, 1% L-glutamine, 4 μg/mL insulin and 1 μM dexamethasone). Multi-well collagen I-coated plates (rat tail collagen type I; 12- or 6-well) were then seeded by addition of 1 mL (12-well; 0.8 million cells/well) or 2 mL (6-well; 1.6 million cells/well) of cell suspension. The plates were gently shaken to evenly distribute the cells and placed in an incubator at 37° C. for approximately 4 to 6 hours to allow cells to attach. Once cells were attached, the platting medium was removed and replaced with hepatocyte culture medium (William's E supplemented with penicillin-streptomycin, 1% L-glutamine, 1% insulin-transferrin-selenium and 0.1 μM dexamethasone). Cells were left overnight in an incubator at 37° C. to acclimatize to culture and the medium.
Hepatocyte incubations with radiolabeled Compound 1 and 2′-C-methyl guanosine, both labeled in the C-8 position of the guanine moiety, were conducted at a final volume of 2.0 mL hepatocyte culture medium/well ([…]). Culture medium from overnight incubation of cells was removed and replaced with fresh medium, pre-warmed to 37° C., containing 1 or 10 μM [^14C]-Compound 1 ([…]) or [^14C]-2′-C-methyl guanosine (127 DPM/μmol) from a stock solution in DMSO (final DMSO concentration was 0.1%) or 50% ethanol (final ethanol concentration was 0.2%). After 1, 4, 8 and 24 hours, 0.5-1.0 mL of incubation medium was removed and stored at −20° C. until analysis (described below). The remaining medium was discarded and cell monolayers were carefully washed two times with ice-cold PBS. Following the last wash, all PBS was carefully removed and 1.0 mL of extraction solution (ice-cold 70% methanol) added. Cells were scrapped off and suspended in the extraction solution, transferred to 2 mL polypropylene microfuge tubes and intracellular contents extracted overnight at −20° C.
Preliminary identification of putative metabolites was conducted by comparing the retention time of observed metabolites in incubation medium and cellular extracts with retention times obtained with chemically synthesized standards using the chromatography conditions described below. Further identification of 2′-C-methyl guanosine nucleotides (mono-, di- and triphosphate) was carried out by incubating cellular extract samples with alkaline phosphatase (10 units for 60 min at 37° C.) and comparing the HPLC retention times of the resulting nucleosides with that of authentic 2′-C-methyl guanosine.
Cellular extracts were prepared by centrifugation at 16,000 RCF using an Eppendorf microcentrifuge (Eppendorf, Model 5415D) for 10 min to remove cellular debris. An aliquot of 5-10 μL of the supernatant was added to 5 mL of EcoLite™ (MP, Irvine, Calif.) liquid scintillation cocktail and radioactivity measured by liquid scintillation counting (LSC) using a Beckman Coulter LS6500 multipurpose liquid scintillation counter (Beckman Instruments, Fullerton, Calif.). The remaining sample was then dried using a Labconco refrigerated centrivap concentrator (Labconco, Kansas City, Mo.). Dry extracts were reconstituted in 120 μL of HPLC-grade water and centrifuged at 16,000 RCF using an Eppendorf microcentrifuge for 10 min. Prior to HPLC analysis (described below), radioactivity of the concentrated extracts was measured by LSC using 5 μL aliquots. Extraction recovery was then determined by comparing total radioactivity in extracts before and after drying. The remaining extract was then analyzed by HPLC with online radioactivity detection using a Flow Scintillation Analyzer Radiomatic™ 515TR. Radioactivity in the separated components was quantified by integrating the peaks using Flo-One™ Software (Perkin Elmer Life Sciences). […]

[1] = rat hepatocytes (Rs458), 1 μM [^14C]-Compound 1, 1 h
[2] = rat hepatocytes (Rs458), 1 μM [^14C]-Compound 1, 8 h
[3] = rat hepatocytes (Rs458), 1 μM [^14C]-Compound 1, 24 h
[4] = rat hepatocytes Rs448, 10 μM [^14C]-2′-C-methyl guanosine, 1 h
[5] = rat hepatocytes Rs448, 10 μM [^14C]-2′-C-methyl guanosine, 4 h
[6] = rat hepatocytes Rs448, 10 μM [^14C]-2′-C-methyl guanosine, 8 h
[7] = rat hepatocytes Rs448, 10 μM [^14C]-2′-C-methyl guanosine, 24 h
[8] = rat hepatocytes Rs458, 1 μM [^14C]-2′-C-methyl guanosine, 1 h
[9] = rat hepatocytes Rs458, 1 μM [^14C]-2′-C-methyl guanosine, 8 h
[10] = rat hepatocytes Rs458, 1 μM [^14C]-2′-C-methyl guanosine, 24 h
[11] = rat hepatocytes Rs458, 10 μM [^14C]-2′-C-methyl guanosine, 1 h
[12] = rat hepatocytes Rs458, 10 μM [^14C]-2′-C-methyl guanosine, 4 h
[13] = rat hepatocytes Rs458, 10 μM [^14C]-2′-C-methyl guanosine, 8 h
[14] = rat hepatocytes Rs458, 10 μM [^14C]-2′-C-methyl guanosine, 24 h

## C[C@@]1(O)[C@H](O)[C@@H](COP(=O)(O)OP(=O)(O)OP(=O)(O)O)O[C@H]1n1cnc2c(=O)[nH]c(N)nc21 [Compound 7, [(2R)-2-methyl-β-D-ribofuranosyl]guanine 5′-triphosphate]
Rat hepatocytes (Rs448, Rs458), 10 μM [^14C]-Compound 1, 1 h, listed as Compd 7
  metabolites observed in cellular extracts (% of total radioactivity): 59.0% and 50.8%
Rat hepatocytes (Rs448, Rs458), 10 μM [^14C]-Compound 1, 4 h, listed as Compd 7
  metabolites observed in cellular extracts (% of total radioactivity): 70.9% and 69.1%
Rat hepatocytes (Rs448, Rs458), 10 μM [^14C]-Compound 1, 8 h, listed as Compd 7
  metabolites observed in cellular extracts (% of total radioactivity): 73.0% and 72.5%
Rat hepatocytes (Rs448, Rs458), 10 μM [^14C]-Compound 1, 24 h, listed as Compd 7
  metabolites observed in cellular extracts (% of total radioactivity): 66.2% and 54.5%
[1]
  2′-C-methyl guanosine nucleotide levels in cellular extracts: 80.0 pmol/million cells
  metabolites observed in cellular extracts (% of total radioactivity): 50.5%
[2]
  2′-C-methyl guanosine nucleotide levels in cellular extracts: 238 pmol/million cells
  metabolites observed in cellular extracts (% of total radioactivity): 77.6%
[3]
  2′-C-methyl guanosine nucleotide levels in cellular extracts: 103 pmol/million cells
  metabolites observed in cellular extracts (% of total radioactivity): 62.1%
Rat hepatocytes (n=1), 1 μM [^14C]-2′-C-methyl guanosine
  Compound 7 AUC0-24h: 458 pmol*h/million cells
Rat hepatocytes (n=1), 1 μM [^14C]-Compound 1
  Compound 7 AUC0-24h: 3,881 pmol*h/million cells
Rat hepatocytes Rs448, 10 μM [^14C]-2′-C-methyl guanosine, 0 h
  2′-C-methyl guanosine nucleotide levels in cellular extracts: 0 pmol/million cells
Rat hepatocytes Rs448, 10 μM [^14C]-2′-C-methyl guanosine
  AUC (area under the concentration-time curve) of Compound 7 levels: 5906 pmol * hr/million cells
[4]
  2′-C-methyl guanosine nucleotide levels in cellular extracts: 28.0 pmol/million cells
  Major metabolites observed in cellular extracts (% of total radioactivity): 5.21 % of total radioactivity
[5]
  2′-C-methyl guanosine nucleotide levels in cellular extracts: 141 pmol/million cells
  Major metabolites observed in cellular extracts (% of total radioactivity): 17.9 % of total radioactivity
[6]
  2′-C-methyl guanosine nucleotide levels in cellular extracts: 258 pmol/million cells and 287 pmol/million cells
  Major metabolites observed in cellular extracts (% of total radioactivity): 24.1 % of total radioactivity
[7]
  2′-C-methyl guanosine nucleotide levels in cellular extracts: 347 pmol/million cells
  Major metabolites observed in cellular extracts (% of total radioactivity): 35.6 % of total radioactivity
Rat hepatocytes Rs448, 10 μM [^14C]-Compound 1, 0 h
  2′-C-methyl guanosine nucleotide levels in cellular extracts: 0 pmol/million cells
Rat hepatocytes Rs448, 10 μM [^14C]-Compound 1
  AUC (area under the concentration-time curve) of Compound 7 levels: 31568 pmol * hr/million cells
Rat hepatocytes Rs448, 10 μM [^14C]-Compound 1, 1 h
  2′-C-methyl guanosine nucleotide levels in cellular extracts: 580 pmol/million cells
Rat hepatocytes Rs448, 10 μM [^14C]-Compound 1, 4 h
  2′-C-methyl guanosine nucleotide levels in cellular extracts: 1429 pmol/million cells
Rat hepatocytes Rs448, 10 μM [^14C]-Compound 1, 8 h
  2′-C-methyl guanosine nucleotide levels in cellular extracts: 1791 pmol/million cells
Rat hepatocytes Rs448, 10 μM [^14C]-Compound 1, 24 h
  2′-C-methyl guanosine nucleotide levels in cellular extracts: 937 pmol/million cells
Rat hepatocytes Rs458, 1 μM [^14C]-2′-C-methyl guanosine
  AUC (area under the concentration-time curve) of Compound 7 levels: 458 pmol * hr/million cells
[8]
  2′-C-methyl guanosine nucleotide levels in cellular extracts: 2.60 pmol/million cells
  Major metabolites observed in cellular extracts (% of total radioactivity): 4.56 % of total radioactivity
[9]
  2′-C-methyl guanosine nucleotide levels in cellular extracts: 20.1 pmol/million cells
  Major metabolites observed in cellular extracts (% of total radioactivity): 26.1 % of total radioactivity
[10]
  2′-C-methyl guanosine nucleotide levels in cellular extracts: 27.0 pmol/million cells
  Major metabolites observed in cellular extracts (% of total radioactivity): 34.1 % of total radioactivity
Rat hepatocytes Rs458, 1 μM [^14C]-Compound 1
  AUC (area under the concentration-time curve) of Compound 7 levels: 3881 pmol * hr/million cells
Rat hepatocytes Rs458, 10 μM [^14C]-2′-C-methyl guanosine, 0 h
  2′-C-methyl guanosine nucleotide levels in cellular extracts: 0 pmol/million cells
Rat hepatocytes Rs458, 10 μM [^14C]-2′-C-methyl guanosine
  AUC (area under the concentration-time curve) of Compound 7 levels: 5384 pmol * hr/million cells
[11]
  2′-C-methyl guanosine nucleotide levels in cellular extracts: 23.0 pmol/million cells
  Major metabolites observed in cellular extracts (% of total radioactivity): 4.42 % of total radioactivity
[12]
  2′-C-methyl guanosine nucleotide levels in cellular extracts: 113 pmol/million cells
  Major metabolites observed in cellular extracts (% of total radioactivity): 16.2 % of total radioactivity
[13]
  2′-C-methyl guanosine nucleotide levels in cellular extracts: 239 pmol/million cells
  Major metabolites observed in cellular extracts (% of total radioactivity): 27.0 % of total radioactivity
[14]
  2′-C-methyl guanosine nucleotide levels in cellular extracts: 319 pmol/million cells
  Major metabolites observed in cellular extracts (% of total radioactivity): 33.9 % of total radioactivity
Rat hepatocytes Rs458, 10 μM [^14C]-Compound 1, 0 h
  2′-C-methyl guanosine nucleotide levels in cellular extracts: 0 pmol/million cells
Rat hepatocytes Rs458, 10 μM [^14C]-Compound 1
  AUC (area under the concentration-time curve) of Compound 7 levels: 28123 pmol * hr/million cells
Rat hepatocytes Rs458, 10 μM [^14C]-Compound 1, 1 h
  2′-C-methyl guanosine nucleotide levels in cellular extracts: 534 pmol/million cells
Rat hepatocytes Rs458, 10 μM [^14C]-Compound 1, 4 h
  2′-C-methyl guanosine nucleotide levels in cellular extracts: 1347 pmol/million cells
Rat hepatocytes Rs458, 10 μM [^14C]-Compound 1, 8 h
  2′-C-methyl guanosine nucleotide levels in cellular extracts: 1618 pmol/million cells
Rat hepatocytes Rs458, 10 μM [^14C]-Compound 1, 24 h
  2′-C-methyl guanosine nucleotide levels in cellular extracts: 770 pmol/million cells
Rat hepatocytes, 1 μM [^14C]-Compound 1
  Compound 7 maximal levels: 103 pmol/million cells
Rat hepatocytes, 10 μM [^14C]-2′-C-methyl guanosine, at 24 hours
  Maximum Compound 7 levels: 249 pmol/million cells
Rat hepatocytes, 10 μM [^14C]-Compound 1
  Compound 7 AUC0-24h: 29,846 pmol*h/million cells
Rat hepatocytes, 10 μM [^14C]-Compound 1, at 8 hours
  Compound 7 maximum levels: 1,705 pmol/million cells

Reference: US20100003217A1, “Compounds and Pharmaceutical Compositions for the Treatment of Viral Infections” (priority 2008, published 2010)
